The subject of one experiment is IGF1/insulin receptor. In words: IGF1/insulin receptor phosphorylation in foetal NSC cultures. The format is cell-based, mouse. As for the experimental part: Specifically, D114 induced the phosphorylation of IGF1/insulin receptor. Peak phosphorylation occurred at 2-5 minutes.
It was determined that insulin facilitates Notch cleavage using immunocytochemical detection.

The subject of experiment [1] is adult mouse subventricular zone central nervous system stem cell cultures from wild-type mice. In words: Survival of adult SVZ stem cell cultures, wild-type mice. The format is cell-based. The method, then: It was determined that adult mouse subventricular zone central nervous system stem cell cultures from wild-type mice respond to D114 by generating twenty-four times more cells, whereas cultures from Hes3 knock-out mice respond to D114 by generating only three times more cells. Thus, in adult mouse neural stem cell cultures, D114 greatly promotes the survival of wild-type cells (23.7±1.7 fold increase), whereas it only slightly stimulates Hes3 knock-out culture survival (2.9±0.2 fold increase).

The test system of the next experiment is nucleostemin, SHH. In words: Nucleostemin and SHH protein expression in CNS stem cells. The format is cell-based, mouse. An excerpt: The interest in stem cell self-renewal mechanisms prompted analysis of potential down-stream components of the Notch/STAT3-Ser727 (Notch/sSTAT) pathway. Nucleostemin is a p53-binding protein expressed in self-renewing CNS stem cells and cancer cells (Tsai et al., J Neurosci 20:3725-35, 2000; Tsai et al., J Cell Biol 168:179-84, 2005). Sonic Hedgehog (SHH) is a protein with functions in fate specification and stem cell survival in the fetal and adult CNS (Palma et al., Development 132:335-44, 2005).
There are two forms of mRNA encoded by the Hes3 gene, Hes3a and Hes3b.

The test system of a further experiment is Akt. In words: Akt phosphorylation immunoblot in CNS stem cells. It counts as cell-based, mouse. As to conditions: for Akt (total) / Akt-pS473 / Akt-pT308: absence of insulin. The method, then:
Insulin in the medium is also thought to promote cell survival. […] Seeding cells in the absence of insulin caused the plating efficiency measured at five days to drop to 29.9%±37.9 (FIG. 1e). Delta-4 was able to compensate for the lack of insulin in the medium, and restored plating efficiency (125%±19.4). Because Notch activation improved survival, activation of Akt, a ser/threonine kinase known to be involved in cell survival, was assayed. Notch activation rapidly (5 minutes) promoted the phosphorylation of Akt on Ser473 and […] in both the presence and absence of insulin (FIG. 1f).
(A western blot detects proteins with antibodies after separation by electrophoresis.)

The mark [2] stands for this setting: Insulin withdrawal, 2 days and then treat for 1 h.

Consider “Delta-4: soluble Notch ligand Delta-4 (1389-D4) from R&D”, for which, in the experiment with IGF1/insulin receptor (setting [2]), the “pIGF1 (19H7)” value is given as “Low” and the “pIGF1 (3021)” value is reported as “Low”. Further, in the experiment on IGF1/insulin receptor (foetal NSC cultures), the “time of peak phosphorylation of IGF1/insulin receptor” value lay within 2 to 5 min. The “survival, fold increase in cells” value in experiment [1] is recorded as 23.7±1.7 fold. Further, in the experiment on nucleostemin, SHH, the “nucleostemin and SHH protein expression” value was “induced nucleostemin and SHH protein expression”. Moreover, in the experiment with Akt (Dll4, 5 min), the “Akt (total)” value was “Medium”, the Akt-pS473 entry is on record as “High” and the Akt-pT308 entry is “High”. Further, in the experiment on Akt (Dll4, 10 min), the “Akt (total)” value was “Medium”, the Akt-pS473 entry was “Medium” and the Akt-pT308 result is listed as “Medium”. Moreover, in the experiment on Akt (presence and absence of insulin, Western blotting), the “time of peak Akt phosphorylation on Ser473 and Ser308” value was determined as 5 min.

These data come from patent US20080242594A1, “Methods for Promoting Stem Cell Proliferation and Survival” (priority 2005, published 2008).
